Results as given in US9102754B2, “Immunomodulatory compositions and methods for treating disease with modified host defense peptides” (priority 2007, dated 2015).
Read-outs that look alike come from different tables or passages of the source. Non-standard residues stand in square brackets, D forms with d.

Assays:
[1] = tested on: LPS-induced expression of BIRC3, CCL20, IL-8 and IL-10 in bovine monocytes; experiment: HDP inhibition of LPS-induced gene expression (qRT-PCR); assay type: cell-based; details: 100 ng/ml LPS; for reduction of LPS-induced CCL20 expression / reduction of LPS-induced IL-8 expression / reduction of LPS-induced IL-10 expression: 0.5 μg/mL peptide; for suppression of the induction of LPS-induced genes: 5 μg/mL peptide, 4 hours
From the text: The induction of inflammation responses by lipopolysaccharide (LPS) has clinical significance as a mechanism of sepsis and also serves as a biomarker for the ability of HDPs to mediate anti-endotoxic function. Our investigation focuses on patterns of expression of genes (BIRC3, CCL20, IL-8 and IL-10) identified through microarray analysis to show the most significant levels of differential expression in response to LPS-stimulation in monocytes, Mookherjee et al., J. Leokocyte. Biol. 80:1-12, 2006; Mookherjee et al., J. Immunol. 176: 2455-2464, 2006. […] Biol. 80:1-12, 2006; Mookherjee et al., J. Immunol. 176: 2455-2464, 2006.
The data presented represents the average of experiments performed in triplicate for a single animal. While all three animals, each tested in triplicate, gave the same trend of responses, the magnitude of these responses is unique for each animal. This is typical of the animal-to-animal variation in the magnitude of LPS-induced responses that has been observed by our group.
Monocytes were purified from isolated PBMCs by MACS® purification using CD14 microbeads (Miltenyi Biotec Inc., Auburn, Calif.). Monocytes were then plated at 5×10^6 cells/well in 6-well plates using Aim V medium (Gibco™, Invitrogen Corp., San Diego, Calif.) supplemented with 10% heat-inactivated fetal bovine serum (Gibco™) and rested for 19 hours before stimulation.
The ability of BMAP-28 and RI-BMAP-28 to modulate patterns of gene expression induced by endotoxin stimulation was determined in cultured monocytes. Cultured monocytes were stimulated with purified LPS (100 ng/ml) in the presence or absence of different concentrations of antimicrobial peptides for 4 hours. […] Biol. 80:1-12, 2006; Mookherjee et al., J. Immunol. 176: 2455-2464, 2006, and in vivo, Clapp et al., Am. J. Respir. Cri. Care Med. 150: 611-617, 1994. Cells were pelleted and stored at −81° C.
RNA was extracted from the bovine PBMCs with the RNeasy Mini Kit (Qiagen Inc., Ontario, Canada) and the RNase-free DNase (Qiagen Inc.) as per the manufacturer's protocols.
Quantitive real-time PCR (qRT-PCR) was performed using Invitrogen's SuperScript™ III Platinum® two step qRT-PCR kit with SYBR® Green (Invitrogen Corp., San Diego, Calif.) on the Bio-Rad (Hercules, Calif.) iCycler. Briefly, 250 ng total RNA, 8 μL 2×RT reaction mix, 2 μL RT enzyme, and DNase/RNase free water were added to a final volume of 20 μL. The mixture was incubated at 25° C. for 5 minutes, followed by 1 hour incubation at 50° C. and a final incubation of 15 min at 70° C. to produce the cDNA. The PCR reaction was carried out as per the manufacturer's instructions (Invitrogen Corp.) using a mix of Platinum® SYBR® Green qRT-PCR Super-Mix UDG, the template cDNA, […] of the primer mix, and DNase/RNase free water up to 15 μL total volume per well. Cycling conditions were carried out as indicated by the Invitrogen's SuperScript™ III Platinum® two-step qRT-PCR kit with SYBR® Green.

mice = details: cited from earlier work
[2] = tested on: LPS-induced TNF-α secretion in bovine PBMCs; experiment: HDP inhibition of LPS-induced TNF secretion (capture ELISA); assay type: cell-based; details: 100 ng/ml LPS, various peptide concentrations
From the text: As patterns expression are not necessarily predictive of final biological responses we sought to confirm the immunomodulatory capabilities of RI-BMAP-28 through independent analysis. Specifically, the ability of the two isomers to influence secretion of the pro-inflammatory cytokine tumor necrosis factor alpha (TNF-α) following LPS stimulation was examined. Secretion of TNF-α is a well established biomarker of inflammation responses (52).
The secretion of TNF in culture supernatants was quantified with a capture ELISA. Inhibition of LPS-induced TNF secretion was evaluated by adding various concentrations of BMAP-28 (▴) or retro-inverso RI-BMAP-28 (▪) to duplicate PBMCs cultures. The data presented experiments performed in a single animal. While all three animals gave the same trend of responses, the magnitude of these responses is unique for each animal. […]
Untreated cells or cells treated with LPS for 24 h, in the presence or absence of the HDPs, were centrifuged at 1000×g for 5 min followed by 10,000×g for 10 min to obtain cell-free tissue culture supernatant samples. […] TNF-α secretion was monitored with a species-specific capture ELISA (37). […] The concentration of the cytokine was quantified by establishing a standard curve with serial dilutions of the recombinant human TNF-α (eBioscience, San Diego, Calif.) or bovine TNFα (Genetech Inc. San Francisco, Calif.).

bovine erythrocytes = experiment: Cytotoxicity (hemolysis) assay; assay type: cell-based
Description: To determine the cytotoxicity of BMAP-28 and RI-BMAP-28 the peptides were incubated overnight at a range of concentrations in the presence of bovine erythrocytes. Consistent with what has been reported by others, BMAP-28 began to exert a cytotoxic effect at concentrations as low as 30 μg/mL. Complete hemolysis was observed by 200 μg/mL of BMAP-28. […] As toxicity currently represents a limiting factor to the systemic administration of HDPs this finding could be of particular significance.
Hemolysis was performed by incubating a 1% (v/v) suspension of bovine erythrocytes in phosphate buffered saline (pH 7.4) with a series of peptide concentrations for 12 hours at 37° C. Samples were then centrifuged and the supernatant absorbance read at 415 nm. Total hemolysis was obtained by resuspending in cells in water rather than PBS. Results are the average from four independent experiments.
Cytotoxicity assays were performed as based upon previously established protocols, Chen et al., Chem. Biol. Drug Des. 67: 162-173, 2006. Briefly, peptide samples were added to 1% bovine erythrocytes in phosphate-buffered saline and reactions were incubated at 37° C. for 18 h in microtiter plates. Appropriate dilutions of the peptides were made fresh prior to each MHC trial in HDP dilution buffer (0.2% BSA, 0.01% acetic acid) and added following addition of the erythrocytes in the appropriate microtiter plate well position. Hemolysis was determined by withdrawing aliquots from the assays, removing unlysed erythrocytes by centrifugation (800×g) and determining which peptide concentrations cause hemoglobin release. Hemoglobin release was determined spectrophotometrically at 570 nm. A sample of 1% erythrocytes with no added peptide served as a non-lysis control. As erythrocytes were incubated in an isotonic medium, no detectable release (<1% of that released upon complete hemolysis) of hemoglobin was observed from this control.

PhoQ = biological target: T1, PhoQ (Salmonella typhimurium, UniProt P0DM80); experiment: PhoPQ reporter assay (PhoN-PhoA fusion); assay type: cell-based, S. typhimurium strain CS 120; details: 5 μg/mL peptide, 5 mM magnesium
T1 construct: S. typhimurium strain CS 120, which expresses a PhoP-regulated fusion between Salmonella acid phosphatase (PhoN) and E. coli alkaline phosphatase (PhoA); endogenous in cells; host or cells: S. typhimurium strain CS 120
T1 sequence (P0DM80 whole entry, the tested form may be a part): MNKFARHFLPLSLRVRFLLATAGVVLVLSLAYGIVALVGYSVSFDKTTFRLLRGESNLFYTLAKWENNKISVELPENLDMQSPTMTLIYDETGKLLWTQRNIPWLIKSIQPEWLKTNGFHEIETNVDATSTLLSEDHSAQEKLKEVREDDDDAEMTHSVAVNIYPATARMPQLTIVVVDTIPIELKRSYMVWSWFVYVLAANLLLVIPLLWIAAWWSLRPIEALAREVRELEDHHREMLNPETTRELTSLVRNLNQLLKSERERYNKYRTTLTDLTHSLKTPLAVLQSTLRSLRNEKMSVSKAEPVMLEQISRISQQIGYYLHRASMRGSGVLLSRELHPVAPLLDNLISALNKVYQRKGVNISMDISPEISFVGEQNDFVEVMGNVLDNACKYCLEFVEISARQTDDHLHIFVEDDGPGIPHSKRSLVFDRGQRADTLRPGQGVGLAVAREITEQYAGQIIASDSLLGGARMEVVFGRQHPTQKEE
Description: S. typhimurium strain CS 120, which expresses a PhoP-regulated fusion between Salmonella acid phosphatase (PhoN) and E. coli alkaline phosphatase (PhoA), was utilized for the analysis of PhoPQ activation. The activity of this fusion protein was measured in media containing varying concentrations of the peptides and/or magnesium. For growth under PhoPQ activating conditions the growth media was supplemented with 50 μM MgCl2. Growth under PhoPQ-repressive conditions was performed in the presence of 5 mM MgCl2 as were all of the assays of peptide responses.
The ability of BMAP28 and RI-BMAP28 to initiate activation of a PhoPQ-dependent reporter was examined by incubation of bacterium in the presence of sub-lethal (5 μg/mL) concentrations of indicated peptide as well as 5 mM magnesium. Values reported represent the averages of three replicates. Activation and repression of PhoPQ by low (50 μM) and high (5 mM) magnesium respectively is also reported.
S. typhimurium strain CS 120, which expresses a PhoP-regulated fusion between Salmonella acid phosphatase (PhoN) and E. coli alkaline phosphatase (PhoA) was utilized for analysis of PhoPQ activation. The activity of this fusion protein was measured in salt-free LB media containing varying concentrations of the peptides and/or magnesium. For growth under PhoPQ activating conditions the growth media was supplemented with 50 μM MgCl2. […]

[3] = tested on: Salmonella typhimurium ATCC 14028, Escherichia coli O157:H7, Serratia marcescens ATCC 274, Yersinia enterocolitica O:9 E40 (pYV40), Pseudomonas cepacia ATCC …; experiment: Minimal inhibitory concentration, modified broth microdilution; assay type: cell-based
From the text: The present study examined the direct antimicrobial activity of BMAP-28 and RI-BMAP-28 against a series of bacterium which are of medical interest. […] This conclusion is also consistent with the maintained sequence and structure of the RI-BMAP-28. Antimicrobial activity, which is dependent upon non-chiral interactions with bacterial membranes, is anticipated to have the lowest structural requirements for maintenance of activity.
The bacterial strains used for this investigation were Salmonella typhimurium ATCC 14028, Escherichia coli O157:H7, Serratia marcescens ATCC 274, Yersinia enterocolitica O:9 E40 (pYV40), Pseudomonas cepacia ATCC 53795, and Salmonella enterititidis 27655R PT4.
The MIC of the peptides were measured using a modified broth microdilution method, Wu et al., Antimicrob. Agents Chemother. 43: 1274-1276, 1999, in LB medium, whereby the assay was performed in sterile 96-well, round-bottom polypropylene microtitre plates with an inoculum of 5×10^5 bacteria per mL. The plates were incubated at 37° C. for 12 h, solutions spotted onto LB-agar plates and the MIC was taken as the concentration at which no growth was observed.

Substance | reduction of LPS-induced CCL20 expression [1] | reduction of LPS-induced IL-8 expression [1] | reduction of LPS-induced IL-10 expression [1] | suppression of the induction of LPS-induced genes [1] | LD50 (mice; administered intravenously) | LD50 (mice; mice, i.p. administration) | inhibition of LPS-induced TNF-α secretion [2] | concentration at which a cytotoxic effect begins (bovine erythrocytes) | concentration giving complete hemolysis (bovine erythrocytes) | activation of PhoPQ-dependent reporter (PhoQ) | cytotoxic effects over the range of peptide concentrations examined (bovine erythrocytes; 1% bovine erythrocytes in PBS, overnight, 37° C.) | potency as direct antimicrobial agent versus natural isomer ([3]; against a spectrum of bacteria) | MIC values relative to that of the natural peptide ([3]; all strains tested, LB medium, 37° C., 12 h)
NH2-GLRSLGRKILRAWKKYGPIIVPIIRIG-COOH (H-GLRSLGRKILRAWKKYGPIIVPIIRIG-OH) [BMAP-28, natural host defense peptide, a 27 amino acid proteolytic product of the antibacterial peptide BMAP-28 precursor protein] | two-fold reduction | four-fold | two-fold reduction | four to five-fold suppression | 15 mg/kg | approximately 40 mg/kg | dose-dependent inhibition | 30 µg/mL | ≤ 200 µg/mL | identical patterns of activation | – | – | –
D-amino acids of NH2-GIRIIPVIIPGYKKWARLIKRGLSRLG-COOH (H-G[dI][dR][dI][dI][dP][dV][dI][dI][dP]G[dY][dK][dK][dW][dA][dR][dL][dI][dK][dR]G[dL][dS][dR][dL]G-OH; also: retro-inverso) [RI-BMAP-28, retro-inversed form of BMAP-28] | two-fold reduction | four-fold | two-fold reduction | four to five-fold suppression | – | – | dose-dependent inhibition | – | – | identical patterns of activation | did not exhibit any cytotoxic effects | 2-3 fold | half to a third
